# Results reported in patent publication US20200390889A1, “REMOTELY TRIGGERED THERAPY” (Bambu Vault LLC, priority 2019, published 2020).
# Legend:
# [1] = likelihood of association with drug induced liver injury, based upon the known potential of the drug; cited from earlier work
# [2] = Percentage of curcumin and Epolight IR 1117 loading / encapsulation determination; type: physicochemical; conditions: in B-805 PMMA/BMA particles made by Example 13(b)
# Experimental: The UV-VIS-NIR absorbance spectrum of the IR absorbing agent and/or the drug is measured using Shimadzu UV-3600 UV-VIS-NIR Spectrophotometer. The concentration of the IR absorbing agent in the particles is determined from application of Beer's law.
# [3] = Leaching (stability) test, protective effect of VTMS shell; type: physicochemical; conditions: post-coating vs pre-coating B-805 particles; 1% SDS in water, sonicated 90 minutes
# Experimental: Prior to the test, particles were dispersed in water for storage at varying concentrations. Amounts of fluid containing 50 mg of particles—a sample of pre-coating particles and a sample of post-coating particles—were weighed into 15 mL conical centrifuge tubes. The tubes were centrifuged to sediment the particles and supernatant was removed. 3 mL of 1% SDS in water was added to each tube, which were then vortexed to resuspend particles. The tubes containing the particles suspended in SDS solution were placed into a sonicated water bath for 90 minutes. The tubes were then removed and centrifuged to sediment the particles again. The supernatant was retained and filtered through a 0.2 μm syringe filter to remove any remaining particles. Absorption spectra of the supernatants was then measured on a Shimadzu 3600 UV/Vis/NIR spectrophotometer from 400-1300 nm. Molarity of colored components in the solutions and the percentage decrease of absorption between post-coating and pre-coating particles was calculated from the spectra.
# [4] = Laser triggered drug release from particles in gelatin; type: physicochemical; conditions: PMMA beads with 25% VTMS shells in gelatin; Q-switched Lutronic laser 1064 nm, 2.46-5.09 J/cm^2
# Experimental: Procedure: A solution of gelatin was prepared by adding Knox gelatin (1.0 g) to cold water (12.5 g) in a 100 mL glass jar equipped with a magnetic stir bar. The gelatin was stirred 15-30 minutes and then hot water was added (70° C.) until the total weight was 50.0 g. This gelatin was then used in 2.0 gm aliquots. Drug loaded PMMA beads with 25% VTMS shells as prepared in Example 1b above (20-30 mg) were then added to the gelatin solution (2.0 g) and vortexed mixed in a 4 dram vial. The suspension of the tattoo particles in gelatin was then sonicated for 15-30 minutes before transferring to a 5 cm plastic culture dish. The gelatin suspension was spread evenly and allowed to set. It was then covered and placed in a refrigerator a 6° C. until ready for laser exposure.
# Laser exposure was accomplished as follows: The cover for the culture dish was removed and a 5 cm clear plastic cover was cut and fit over the gelatin to prevent splatter. The top surface was then completely lasered at 1064 nm with a 5 mm spot using fluences ranging from 2.46 J/cm^2 to 5.09 J/cm^2 using Q-switched Lutronic laser.
# After lasering the top surface the culture dish was covered with its lid, turned over and lasered from the opposite side to reach any unexposed beads visible only from the bottom side.
# The standard fluence for tattoo removal is 3.51 J/cm^2. […]
# T47D = conditions: ER+ breast cancer cells, Hu et al. 2018; cited from earlier work
# MCF7 = conditions: MCF7, ER+ breast cancer cells; Hu et al. 2018; cited from earlier work
# MDA-MB-415 = conditions: MDA-MB-415, ER+ breast cancer cells; Hu et al. 2018; cited from earlier work
# MDA-MB-231 = conditions: MDA-MB-231, ER-PR-HER2- cells; Hu et al. 2018; cited from earlier work
# MDA-MD-468 = conditions: MDA-MD-468, ER-PR-HER2- cells; Hu et al. 2018; cited from earlier work
# BT-20 = conditions: BT-20, ER-PR-HER2- cells; Hu et al. 2018; cited from earlier work
# [5] = Screening of acrylic polymers and additives for IR absorbing agent stability and retention; type: physicochemical; conditions: additive within the particles
# Experimental: Various commercially available acrylic polymers were screened for preferred particle performance characteristic such as particle size distribution, IR absorbing agent stability and encapsulation efficiency. […] NeoCryl® B-818, an ethyl acrylate/ethyl methacrylate copolymer, contained a lower hydroxyl value, but was still swellable in low molecular weight alcohols. NeoCryl® B-805, a methyl methacrylate/butyl methacrylate copolymer, had suitably a low hydroxyl value and a high Tg (99° C.) for human body applications.
# The loading of IR absorbing agents within the particles is as high as possible without degrading the cohesion of the polymer. The additives that stabilize the IR absorbing agent within the particles have been studied.
# [6] = Retention of tetrakis aminium dye during emulsification with different surfactants; type: physicochemical; conditions: for retention of Epolight 1117 in the particles: during the emulsion and evaporation process
# Experimental: IR absorbing agent weight ratio=4.4:1). The organic phase (polymer and IR absorbing agents dissolved in dichloromethane) was injected directly into the aqueous phase (PVA solution with SDS surfactant) at the tip of the Turrax's roto-stator (i.e. directly into the flow being sheared by the roto-stator). The shear mixing at 8000 RPM was continued for 30 minutes. The resulting mixture was decanted into an open-mouth container and stirred magnetically for 16 hours. A solid suspension of particles containing IR absorbing agent was obtained. The solid suspension was centrifuged at 5000 RPM for 30 minutes and the particles were collected. The collected particles were washed with distilled water by resuspending the particles into distilled water and centrifuging as before to collect the particles. This washing process was repeated three times to remove residual PVA. The resulting MMA/IA/BMA copolymer particles containing IR absorbing agent were air-dried. In the emulsion method of encapsulation, a surfactant is necessary to help keep the emulsion stable. While Aerosol® TR-70 (sodium bis(tridecyl) sulfosuccinate) could be used as an emulsifier to prepare polymer particles encapsulating Epolight™ 1117 tetrakis aminium dye, TR-70 only provided limited stabilization effects on the tetrakis aminium dye. […] Reducing the amount of SDS in the aqueous phase led to lower Epolight™ 1117 retention and larger particle size (Table 5).
# [7] = 0.6% surfactant in aqueous phase during emulsification
Compound,Likelihood Score [1],further results
CCN1CCN(Cc2ccc(Nc3ncc(F)c(-c4cc(F)c5nc(C)n(C(C)C)c5c4)n3)nc2)CC1 [Abemaciclib],E*,–
CCS(=O)(=O)N1CC(CC#N)(n2cc(-c3ncnc4[nH]ccc34)cn2)C1 [Baricitinib],E*,–
Cn1cnc2c(F)c(Nc3ccc(Br)cc3F)c(C(=O)NOCCO)cc21 [Binimetinib],E*,–
COc1cc(Nc2c(C#N)cnc3cc(OCCCN4CCN(C)CC4)c(OC)cc23)c(Cl)cc1Cl [Bosutinib],E*,–
COc1cc(N2CCC(N3CCN(C)CC3)CC2)ccc1Nc1ncc(Cl)c(Nc2ccccc2P(C)(C)=O)n1 [Brigatinib],E*,–
COc1cc2nccc(Oc3ccc(NC(=O)C4(C(=O)Nc5ccc(F)cc5)CC4)cc3)c2cc1OC [Cabozantinib],E*,–
COc1c(OCCCN2CCOCC2)ccc2c1N=C(NC(=O)c1cnc(N)nc1)N1CCN=C21 [Copanlisib],E*,–
"COc1cc(/C=C/C(=O)CC(=O)/C=C/c2ccc(O)c(OC)c2)ccc1O [Curcumin, curcumin]",–,measured encapsulation [2]: 78%; reduction of leaching by VTMS shell [3]: 70%; curcumin released from the particles [4]: about 3 wt. %; IC50 (T47D): 2.07 ± 0.08 µM; IC50 (MCF7): 1.32 ± 0.06 µM; IC50 (MDA-MB-415): 4.69 ± 0.06 µM; IC50 (MDA-MB-231): 11.3 ± 2.13 µM; IC50 (MDA-MD-468): 18.6 ± 3.12 µM; IC50 (BT-20): 16.2 ± 2.16 µM
"Cc1cc(C(C)(C)C)c(O)c(C)c1Cn1c(=O)n(Cc2c(C)cc(C(C)(C)C)c(O)c2C)c(=O)n(Cc2c(C)cc(C(C)(C)C)c(O)c2C)c1=O [Cyanox® 1790, 1,3,5-tris(4-tert-butyl-3-hydroxy-2,6-dimethylbenzyl)-1,3,5-triazine-2,4,6-(1H,3H,5H)-trione]",–,impact on IR absorbing agent stability [5]: positive impact
CC(C)(C)c1nc(-c2cccc(NS(=O)(=O)c3c(F)cccc3F)c2F)c(-c2ccnc(N)n2)s1 [Dabrafenib],E*,–
COc1cc2ncnc(Nc3ccc(F)c(Cl)c3)c2cc1NC(=O)/C=C/CN1CCCCC1 [Dacomitinib],E*,–
C[C@H](Nc1ncnc2[nH]cnc12)c1cc2cccc(Cl)c2c(=O)n1-c1ccccc1 [Duvelisib],E*,–
CC(C)(O)CNc1nc(Nc2ccnc(C(F)(F)F)c2)nc(-c2cccc(C(F)(F)F)n2)n1 [Enasidenib],E*,–
COC(=O)N[C@@H](C)CNc1nccc(-c2cn(C(C)C)nc2-c2cc(Cl)cc(NS(C)(=O)=O)c2F)n1 [Encorafenib],E*,–
COc1cc(Nc2ncc(F)c(Nc3ccc4c(n3)N(COP(=O)(O)O)C(=O)C(C)(C)O4)n2)cc(OC)c1OC [Fostamatinib],E*,–
CCc1nc(C(N)=O)c(Nc2ccc(N3CCC(N4CCN(C)CC4)CC3)c(OC)c2)nc1NC1CCOCC1 [Gilteritinib],E*,–
CN1CC[C@@H](NC(=O)Nc2ccc(C#N)cc2)C[C@@H]1c1nc2ccccc2[nH]1 [Glasdegib],E*,–
N#Cc1ccnc(N2C(=O)CC[C@H]2C(=O)N(c2cncc(F)c2)[C@H](C(=O)NC2CC(F)(F)C2)c2ccccc2Cl)c1 [Ivosidenib],E*,–

Compound,Likelihood Score [1],further results
CC(C)C[C@H](NC(=O)CNC(=O)c1cc(Cl)ccc1Cl)B(O)O [Ixazomib],E*,–
O=C(Nc1cnn2ccc(N3CCC[C@@H]3c3cc(F)ccc3F)nc12)N1CC[C@H](O)C1 [Larotrectinib],E*,–
C[C@H]1Oc2cc(cnc2N)-c2c(nn(C)c2C#N)CN(C)C(=O)c2ccc(F)cc21 [Lorlatinib],E*,–
CO[C@@H]1[C@H](N(C)C(=O)c2ccccc2)C[C@H]2O[C@]1(C)n1c3ccccc3c3c4c(c5c6ccccc6n2c5c31)C(=O)NC4 [Midostaurin],E*,–
CCOc1cc2ncc(C#N)c(Nc3ccc(OCc4ccccn4)c(Cl)c3)c2cc1NC(=O)/C=C/CN(C)C [Neratinib],E*,–
COC(=O)c1ccc2c(c1)NC(=O)/C2=C(\Nc1ccc(N(C)C(=O)CN2CCN(C)CC2)cc1)c1ccccc1 [Nintedanib],E*,–
NC(=O)c1cccc2cn(-c3ccc([C@@H]4CCCNC4)cc3)nc12 [Niraparib],E*,–
CC(=O)c1c(C)c2cnc(Nc3ccc(N4CCNCC4)cn3)nc2n(C2CCCC2)c1=O [Palbociclib],E*,–
Cc1ccc(C(=O)Nc2ccc(CN3CCN(C)CC3)c(C(F)(F)F)c2)cc1C#Cc1cnc2cccnn12 [Ponatinib],E*,–
CNCc1ccc(-c2[nH]c3cc(F)cc4c3c2CCNC4=O)cc1 [Rucaparib],D*,–
N#CC[C@H](C1CCCC1)n1cc(-c2ncnc3[nH]ccc23)cn1 [Ruxolitinib],E*,–
"CCCCCCCCCCCCOS(=O)(=O)[O-].[Na+] [SDS, sodium dodecyl sulfate]",–,"% Epolight 1117 Retention ([6]; 0.2% surfactant in aqueous phase during emulsification): 74.97%; % Epolight 1117 Retention ([6]; 0.4% surfactant in aqueous phase during emulsification): 80.17%; % Epolight 1117 Retention [6, 7]: 82.96%; retention of Epolight 1117 in the particles [6]: 85-90%"
Cc1c(C(=O)Nc2ccc(N3C[C@@H](C)O[C@@H](C)C3)nc2)cccc1-c1ccc(OC(F)(F)F)cc1 [Sonidegib],E*,–
"CCCCCCCCCCCCCOC(=O)CC(C(=O)OCCCCCCCCCCCCC)S(=O)(=O)O.[Na] (centres unmarked) [TR-70, sodium bis(tridecyl) sulfosuccinate]",–,"% Epolight 1117 Retention [6, 7]: 51.70%; retention of Epolight 1117 in the particles [6]: 50%"
Cn1ncnc1[C@H]1c2n[nH]c(=O)c3cc(F)cc(c23)N[C@@H]1c1ccc(F)cc1 [Talazoparib],E*,–
COc1cc2c(Nc3ccc(Br)cc3F)ncnc2cc1OCC1CCN(C)CC1 [Vandetanib],E*,–
CCCS(=O)(=O)Nc1ccc(F)c(C(=O)c2c[nH]c3ncc(-c4ccc(Cl)cc4)cc23)c1F [Vemurafenib],E*,–
